From paper PMC9945865, “Anticancer evaluation of new organometallic ruthenium(II) flavone complexes” (RSC Medicinal Chemistry, 2022) come the findings set out here.

SMILES strings stand for the structures.

As a reminder, the IC50 is the concentration needed to halve the response being measured.

The subject of data set [1] is HUVEC cells. The data set can be described thus: Cytotoxicity on HUVECs, trypan blue exclusion assay. Type of data set: cell-based, human. To be noted: 40 μM, 24 h, % of control, p > 0.05 vs control. The method, then:
The biocompatibility of flavones (1 and 2)[30] alongside their ruthenium(II) metal complexes (1Ru and 2Ru) with HUVEC cells was established using the trypan blue exclusion assay. A concentration four times higher (i.e. 40 μM) than the highest concentration used for the tube formation antiangiogenic evaluation study (i.e. 10 μM) was selected for this cytotoxic assay.
Cytotoxic activity of treatments on HUVECs using trypan blue exclusion assay.[55] HUVECs were seeded in 96 well plates at 1 × 10^5 cells per mL and cultured for 24 h. Cells were then treated with either luteolin, the synthesised derivatives at 40 μM or culture medium (control) for 24 h. After 24 h, solutions were removed and cells washed with 100 μL PBS followed by the addition of 50 μL trypsin–EDTA and incubation for 5 min to detach the cells. 50 μL of EGM-2 media was added to the wells. 50 μL aliquots of the cell suspension were mixed with equal volume of trypan blue (TB) 0.2% v/v (prepared from 0.4% TB diluted with PBS) then the cells were counted using a haemocytometer. Number of viable and dead cells were counted manually and % cell viability of each treatment was expressed as % of control using the equation:% Cell Viability = (Cell viability in treatment/Cell viability in control) × 100where cell viability was calculated as follows:Cell Viability = Number of viable cells/Total number of cells(viable and dead).

Data set [2] has as its system HUVECs. The data set can be described thus: Matrigel endothelial cell tube formation assay (VEGF-mediated). Type of data set: cell-based, human. To be noted: 12 h; for tube formation inhibition activity: 1 μM. The method, then: In our recent study,[30] the 4′-chlorophenylflavone derivatives 1 and 2 have shown promising antiangiogenic activities in vitro. Herein, the effect of complexation with a ruthenium(II) metal ligand on the antiangiogenic activity of 1 and 2 was evaluated using the Matrigel tube formation assay that assesses many of the main steps involved in the process of angiogenesis. Inhibition of VEGF-mediated tube formation by the tested substrates was observed after 12 h of treatment on HUVECs at 1 μM and 10 μM concentrations. Luteolin is a natural flavone well known for its high antiangiogenic activity both in vitro and in vivo[34] and as such was used in this study as a reference standard. In accordance with reported data, luteolin inhibited the measured elements of tube formation by 30% compared to the positive control.[34,35] […] The ability of Ru(II) organometallic derivatives to target tumour metastasis has been widely reported both in vitro and in vivo.[3,6,9,36] Thus, based on the preliminary antiangiogenic trends observed for our target Ru(II) complexes (1Ru and 2Ru) and their parent flavones (1 and 2), we further investigated their antiproliferative and antimetastatic potential on the estrogen receptor positive breast cancer cell line (MCF-7) and the more aggressive triple negative cell line (MDA-MB-231).
HUVECs were cultured until confluency and then serum starved (0.1% serum) for 24 h. The tube formation assay followed the reported assay.[56] Briefly, 96 well plates were coated with 50 μL of Corning™ Matrigel™ GFR Membrane Matrix at 4 °C and incubated at 37 °C for 1–2 h to solidify. Serum starved HUVECs were seeded on the solidified Matrigel at 3 × 10^5 cells per mL and treated with medium containing VEGF (10 ng mL^−1) and either luteolin or one of the synthesised derivatives (at 1 μM or 10 μM). Plates were incubated for 12 h and photos covering the whole well area were taken using 4× magnification power of an inverted light microscope. Number of junctions, number and length of segments and master segments were quantified from the taken Images via the Angiogenesis Analyzer plugin[57] in ImageJ software.[58] […] Data was represented as a ratio to the positive control (VEGF enriched).

In data set [3] the test system is MCF-7. Briefly: Cell viability, 72 h MTT assay. To be noted: MCF-7, 72 h MTT, mean ± SEM, n = 3. Type of data set: cell-based, human. The method, then:
(§1) The unique chemical features and coordination geometries of metal ions can add several additional binding interactions that can potentially enhance their anticancer properties for example by allowing intercalation and exploitation of their redox potential.[24] […] In that context, coordination of derivative (2) with a Ru(II) metal ligand is a promising approach to further improve its antiproliferative activity.
(§2) MCF-7 and MDA-MB-231 cells were seeded at a density of 4 × 10^4 and 2 × 10^4 cells per mL, respectively, into 96 well plates and incubated to allow the attachment for 24 h. After 24 h, the cells were treated with one of the synthesised derivatives at range of concentrations (0–100 μM) for 67 h. After 67 h, 20 μL of MTT (5 mg mL^−1) solution in PBS was added to each well and the cells were incubated for 5 h. The purple crystals formed were dissolved in 100 μL of DMSO and the plates were read at 560 nm using a SPECTRA max UV spectrometer (Bio-Rad). The data represented are the mean of the three individual experiments.

The test system of data set [4] is MDA-MB-231. The data set can be described thus: Cell viability, 72 h MTT assay. Type of data set: cell-based, human. To be noted: MDA-MB-231, 72 h MTT, mean ± SEM, n = 3. How it is done: as §1, §2
(Tetrazolium dyes change colour on reduction, which living cells bring about.)

In data set [5] the test system is MCF-7. The data set can be described thus: Wound healing (migration) 24 h scratch assay. Type of data set: cell-based, human. How it is done: Malignant cell migration is essential for tumour invasion and metastasis.[1] Thus, the ability of the synthetic flavones (1 and 2) and their Ru(II) metal complexes (1Ru and 2Ru) to inhibit the migration of breast cancer cells (MCF-7 and MDA-MB-231) was assessed by an in vitro 24 h scratch assay. Low, sub-cytotoxic concentrations of 1, 10 and 20 μM were used in this evaluation.
MCF-7 or MDA-MB-231 cells were seeded in 12-well plates at 2 × 10^5 or 1 × 10^5 cells per mL, respectively, and cultured until 70–80% confluency. Afterwards, they were serum-starved (0% serum) for 24 h to inactivate the cell proliferation. A scratch was performed on the cell monolayers using a 200 μL pipette tip. Cells were then washed twice with PBS and treated with complete medium and one of the synthesized derivatives at 1, 10 or 20 μM. […] Images of the scratches were taken immediately after performing the scratch (t = 0 h) and at 24 h (t = 24 h). The area not covered by the cells was quantified using ImageJ software. % of wound closure was calculated using the following equation:100 × ((Area of scratch at t0 − Area of scratch at t24)/Area of scratch at t0)

Data set [6] in a line: Temperature dependent UV-vis stability of the complexes. Further details: key to Δλ260: change in absorbance at 260 nm (absorbance units). To be noted: for λ260 (absorbance at 260 nm) / UV-vis stability profile: 0.1% DMSO/ddH2O; for UV-vis stability profile: temperature increments 20-80 °C, 6 h time interval. Type of data set: physicochemical. The method, then: Wavelength (nm) Wavelength (nm)
Figure 3. Temperature dependant UV-VIS spectra of (A) 1Ru and (B) 2Ru in 0.1%DMSO/ddH2O solution recorded
over a 6 h time interval.
Table 1. λ260a and Δ λ260b of complexes 1Ru and 2Ru at 20 °C – 80 °C

Take `Cc1ccc(C(C)C)cc1.O=c1cc(-c2ccc(Cl)cc2)oc2cc(O)cc([O-])c12.[Cl-].[Ru+2]` [1Ru, chlorido [(5-oxo-κO)-7-hydroxy-2-(4′-chlorophenyl)-4H-chromen-4-onato-κO] (η^6-p-cymene)ruthenium(II)]: the “Cell viability of HUVECs” value in data set [1] is on record as around 100%. In addition, the “tube formation inhibition activity” value in data set [2] is listed as “total loss of their parents' tube formation inhibition activity”. The “overall tube formation inhibition” value in data set [2] (10 μM, insignificant (p > 0.05)) was determined as 22%. The IC50 in data set [3] was 66.2 ± 5 µM; in data set [4] it was above 100 µM. In addition, the migration inhibition is given as 50% in data set [5] (MCF-7, 1 μM); 42% in data set [5] (MCF-7, 10 μM); 41% in data set [5] (MCF-7, 20 μM). Also, the Δλ260 amounted to 0 in data set [6] (20 °C (baseline)), 0.00072 in data set [6] (40 °C minus 20 °C), 0.00174 in data set [6] (60 °C minus 20 °C) and 0.00388 in data set [6] (80 °C minus 20 °C). The “λ260 (absorbance at 260 nm)” value came out at 0.0435 in data set [6] (20 °C), 0.04422 in data set [6] (40 °C), 0.04525 in data set [6] (60 °C) and 0.04738 in data set [6] (80 °C). Further, in data set [6], the UV-vis stability profile entry was “sufficient stability”.
On to `Cc1ccc(C(C)C)cc1.[Cl-].[O-]c1cc(O)cc2oc(-c3ccc(Cl)cc3)cc(=S)c12.[Ru+2]` [2Ru, chlorido [(5-oxo-κO)-7-hydroxy-2-(4′-chlorophenyl)-4H-chromen-4-thionato-κO] (η^6-p-cymene)ruthenium(II)], for which the “Cell viability of HUVECs” value in data set [1] is reported as around 100%. Further, the “tube formation inhibition activity” value in data set [2] is “total loss of their parents' tube formation inhibition activity”. The “reduction in the number of junctions” value in data set [2] (10 μM, p < 0.01) amounted to 40%. Also, the “reduction in number and length of master segments” value in data set [2] (10 μM, p < 0.05) stood at 35%. Moreover, the IC50 in data set [3] and in data set [4] was above 100 µM in each case. The migration inhibition in data set [5] (MCF-7, 1 μM) was 52%; in data set [5] (MCF-7, 10 μM), 49%; in data set [5] (MCF-7, 20 μM), 55%. Also, the Δλ260 in data set [6] (20 °C (baseline)) turned out to be 0; in data set [6] (40 °C minus 20 °C) it was 0.0013; in data set [6] (60 °C minus 20 °C), 0.0021; in data set [6] (80 °C minus 20 °C), 0.0028. Moreover, the “λ260 (absorbance at 260 nm)” value is listed as 0.03108 in data set [6] (20 °C), 0.02973 in data set [6] (40 °C), 0.02902 in data set [6] (60 °C) and 0.02832 in data set [6] (80 °C). Further, the UV-vis stability profile result in data set [6] is “sufficient stability”.
